Columns and labels:
[1] = xn = mol fraction of the nth substance listed; settings: 298.15 K, 101.33 kPa, Liquid
[2] = excess molar enthalpy (molar enthalpy of mixing); xn = mol fraction of the nth substance listed; settings: 298.15 K, 101.33 kPa, Liquid

CCOC(=O)CC [ethyl propanoate] + ClCCCl
[1]
Settings | mass density [kg/m3]
x1 = 0.0458 | 1221.49
x1 = 0.0867 | 1201.01
x1 = 0.131 | 1179.33
x1 = 0.1761 | 1158.4
x1 = 0.225 | 1136.63
x1 = 0.2733 | 1116.14
x1 = 0.3272 | 1094.1
x1 = 0.3811 | 1073.16
x1 = 0.4371 | 1052.35
x1 = 0.4963 | 1031.27
x1 = 0.5583 | 1010.27
x1 = 0.6235 | 989.23
x1 = 0.69 | 968.72
x1 = 0.7598 | 948.13
x1 = 0.835 | 927.04
x1 = 0.9131 | 906.11

ClCCCCCCl [1,5-dichloropentane] + CCCCC(=O)OCC
Settings | excess molar enthalpy [kcal/mol] | mass density [kg/m3]
[1], x2 = 0.1036 | – | 1068.61
[1], x2 = 0.1561 | – | 1055.46
[1], x2 = 0.2082 | – | 1042.59
[1], x2 = 0.2623 | – | 1029.48
[1], x2 = 0.3179 | – | 1016.24
[1], x2 = 0.3785 | – | 1002.01
[1], x2 = 0.4369 | – | 988.54
[1], x2 = 0.4943 | – | 975.55
[1], x2 = 0.5534 | – | 962.34
[1], x2 = 0.6141 | – | 949.06
[1], x2 = 0.6755 | – | 935.8
[1], x2 = 0.7367 | – | 922.8
[1], x2 = 0.8008 | – | 909.43
[1], x2 = 0.8658 | – | 896.13
[1], x2 = 0.9318 | – | 882.79
[2], x2 = 0.0481 | -0.00244 | –
[2], x2 = 0.1066 | -0.00762 | –
[2], x2 = 0.1663 | -0.0128 | –
[2], x2 = 0.228 | -0.0206 | –
[2], x2 = 0.2876 | -0.0279 | –
[2], x2 = 0.3438 | -0.0357 | –
[2], x2 = 0.3973 | -0.0434 | –
[2], x2 = 0.416 | -0.0465 | –
[2], x2 = 0.4433 | -0.0493 | –
[2], x2 = 0.4786 | -0.0512 | –
[2], x2 = 0.5288 | -0.0522 | –
[2], x2 = 0.5848 | -0.0517 | –
[2], x2 = 0.6478 | -0.05 | –
[2], x2 = 0.7165 | -0.0433 | –
[2], x2 = 0.7867 | -0.0365 | –
[2], x2 = 0.8597 | -0.0264 | –
[2], x2 = 0.9325 | -0.0137 | –

ClCCCCl [1,3-dichloropropane] + CCCC(=O)OCC
Settings | excess molar enthalpy [kcal/mol] | mass density [kg/m3]
[1], x2 = 0.0446 | – | 1159.59
[1], x2 = 0.088 | – | 1141.99
[1], x2 = 0.1341 | – | 1124.03
[1], x2 = 0.1825 | – | 1105.75
[1], x2 = 0.2294 | – | 1088.7
[1], x2 = 0.2836 | – | 1069.63
[1], x2 = 0.3377 | – | 1051.42
[1], x2 = 0.3924 | – | 1033.68
[1], x2 = 0.4475 | – | 1016.45
[1], x2 = 0.5058 | – | 998.9
[1], x2 = 0.5686 | – | 980.73
[1], x2 = 0.6322 | – | 963.09
[1], x2 = 0.6986 | – | 945.45
[1], x2 = 0.7724 | – | 926.66
[1], x2 = 0.8405 | – | 910.03
[2], x2 = 0.045 | -0.00619 | –
[2], x2 = 0.0966 | -0.0152 | –
[2], x2 = 0.1504 | -0.0234 | –
[2], x2 = 0.2076 | -0.0352 | –
[2], x2 = 0.2635 | -0.0452 | –
[2], x2 = 0.3171 | -0.0564 | –
[2], x2 = 0.3678 | -0.0673 | –
[2], x2 = 0.4155 | -0.0743 | –
[2], x2 = 0.4596 | -0.0781 | –
[2], x2 = 0.5012 | -0.0799 | –
[2], x2 = 0.5417 | -0.0797 | –
[2], x2 = 0.605 | -0.0778 | –
[2], x2 = 0.6754 | -0.071 | –
[2], x2 = 0.7523 | -0.0583 | –
[2], x2 = 0.8348 | -0.0428 | –
[2], x2 = 0.9216 | -0.0239 | –

ClCCCCCl [1,4-dichlorobutane] + CCOC=O
[1]
Settings | mass density [kg/m3]
x2 = 0.0818 | 1119.67
x2 = 0.1583 | 1106.59
x2 = 0.2305 | 1093.6
x2 = 0.2967 | 1081.3
x2 = 0.3635 | 1068.33
x2 = 0.4271 | 1055.54
x2 = 0.491 | 1042.19
x2 = 0.6081 | 1016.39
x2 = 0.6615 | 1003.97
x2 = 0.7146 | 991.26
x2 = 0.7671 | 978.22
x2 = 0.816 | 965.61
x2 = 0.8633 | 952.97
x2 = 0.91 | 940.24
x2 = 0.9551 | 927.47

ClCCCCCCCl [1,6-dichlorohexane] + CCOC(=O)CC
[1]
Settings | mass density [kg/m3]
x2 = 0.0733 | 1053.16
x2 = 0.144 | 1042.66
x2 = 0.2117 | 1032.32
x2 = 0.2775 | 1021.98
x2 = 0.3418 | 1011.56
x2 = 0.4104 | 1000.12
x2 = 0.5264 | 979
x2 = 0.5884 | 968.62
x2 = 0.7491 | 937.72
x2 = 0.8052 | 926.3
x2 = 0.8547 | 915.96
x2 = 0.905 | 905.21
x2 = 0.9513 | 894.99

ClCCCCl [1,3-dichloropropane] + CCOC(C)=O
[1]
Settings | mass density [kg/m3]
x2 = 0.0582 | 1160.94
x2 = 0.1136 | 1144.62
x2 = 0.1719 | 1127.58
x2 = 0.2292 | 1110.81
x2 = 0.2869 | 1094.08
x2 = 0.3444 | 1077.42
x2 = 0.4017 | 1061.01
x2 = 0.4609 | 1044.12
x2 = 0.5208 | 1027.15
x2 = 0.5839 | 1009.34
x2 = 0.6423 | 992.92
x2 = 0.7017 | 976.39
x2 = 0.7599 | 960.24
x2 = 0.8205 | 943.48
x2 = 0.8803 | 927.01
x2 = 0.9389 | 911.03

ClCCCCCCl [1,5-dichloropentane] + CCOC=O
[1]
Settings | mass density [kg/m3]
x2 = 0.0925 | 1084.33
x2 = 0.173 | 1074.06
x2 = 0.2529 | 1063.2
x2 = 0.3276 | 1052.35
x2 = 0.3957 | 1041.79
x2 = 0.4618 | 1031.02
x2 = 0.5249 | 1020.19
x2 = 0.5835 | 1009.55
x2 = 0.6395 | 998.87
x2 = 0.6917 | 988.42
x2 = 0.7415 | 977.92
x2 = 0.7896 | 967.31
x2 = 0.836 | 956.62
x2 = 0.8791 | 946.24
x2 = 0.9211 | 935.6
x2 = 0.9595 | 925.4

CCOC=O [ethyl methanoate] + ClCCCl
[1]
Settings | mass density [kg/m3]
x1 = 0.0604 | 1224.56
x1 = 0.1183 | 1204.73
x1 = 0.175 | 1185.45
x1 = 0.2911 | 1146.17
x1 = 0.3483 | 1126.98
x1 = 0.4068 | 1107.45
x1 = 0.4649 | 1088.21
x1 = 0.5246 | 1068.52
x1 = 0.5831 | 1049.26
x1 = 0.6432 | 1029.61
x1 = 0.7012 | 1010.71
x1 = 0.758 | 992.23
x1 = 0.817 | 973.15
x1 = 0.8778 | 953.5
x1 = 0.9362 | 934.65
